Patent US8598157B2, “5-alkynyl-pyridines” (Boehringer Ingelheim International GmbH, priority 2011, dated 2013)

Key:
PI3Kalpha = PI3Kalpha (Homo sapiens (Human), UniProt P42336); experiment: Inhibition of PI3Kalpha-induced PIP-2 phosphorylation (filter-binding assay); type: biochemical; details: 33P-ATP, p85alpha/His-p110alpha, read-out: IC50 PI3Kα
Text: Inhibition of PI3Kalpha-Induced PIP-2 Phosphorylation
This PI3Kalpha assay provides an IC50 value indicative of the activity of the compounds to inhibit PI3 kinase alpha activity. Inhibition of PI3 kinase would be expected to be indicative of activity in treating conditions of excessive or anomalous cell proliferation, such as cancers. See also J. A. Engelman, Nature Reviews Cancer, 2009, 9, 550-562; A. Carnero, Expert Opin. Investig. Drugs, 2009, 18, 1265-1277 and P. Liu et al., Nature Reviews Drug Discovery, 2009, 8, 627-64.
Method Type: Filter-Binding-Assay
Aliquoted in desired amounts and stored at −80° C. Final assay concentration 25 ng/well • Phosphotyrosin PDGFRbeta-peptide H-CGG-pY-[…]-pY-VPMLDM-NH2 was synthesized by Jerini Peptide Technologies (JPT) and used in a final conc. of 1.7 μM (stock 100 μM prepared in Assay buffer with DTT, aliquoted in desired amounts and stored at −80° C.) • Cold ATP (from Sigma; A-7699), 100 μM stock solution in H2O, use 1 μM final concentration in assay • [33P]-ATP, 370 MBq/ml from Amersham (#AH9968), use 0.5 μCi/well (10 mCi/ml) • Clear 96-well plates from Greiner (#655 162) • Filter plates: Perkin Elmer UniFilter GF/B #6005177 • Microscint 0 (from Perkin Elmer, #6013611) 2. Assay Procedure
The substrate-containing lipid vesicles are dissolved to a concentration of 0.637 mg lipid blend/ml assay buffer (with BSA, freshly added) in 50 ml Falcon->keep on ice, followed by ultrasonication (pulse of 15 sec followed by a pause of 10 sec, 4×). Compounds are serially diluted in assay buffer+6% DMSO and […] of each dilution is added per well of a 96-well plate (compounds are tested in duplicates) and mixed with 30 μl of the lipid vesicles containing PDGFR-Peptide ([…]) and PI3K alpha (25 ng/well final). The mixture is then incubated for 20 minutes at room temperature. Subsequently, 20 μl of assay buffer containing […] cold ATP and 0.5 μCi/20 μl 33P-ATP are added. The plates are then incubated at room temperature for 120 minutes (shaking with 300 rpm).
The reaction mix is transferred onto filter plates using “filtermate harvester” from Packard: filter plates are rinsed with PBS, then the reaction mix is filtered onto the filter plate, washed 5 times with PBS and are allowed to dry for 30-60 minutes at 50° C.
The plate bottom is sealed with Perkin Elmer white adhesive foil and 25 μl/well Microscint( ) are added, the top is covered with transparent adhesive foil and the plate is measured with Wallac Trilux 1450 Microbeta Counter.
As positive control serve wells containing vehicle controls (1% DMSO in assay buffer), showing non-inhibited kinase activity (high values). Wells containing assay buffer instead of enzyme can serve as control for background activity (low values).
Calculate IC50 values using the Smiley program (based on GrapPad Prism)

H460 cells = experiment: alamarBlue H460 cell assay (antiproliferative/cytotoxicity); type: cell-based; details: NCI-H460; H460 human lung carcinoma cells
Text: (§1) The H460, MB453, U87, MCF7 and BT474 alamarBlue cell assays provide EC50 values indicative of the antiproliferative or cytotoxic effects of the compounds to respectively the H460 (human non small cell line cancer), MB-453 (breast cancer cell line), U87 (glioblastoma cell line), MCF7 (breast cancer cell line) and BT474 (breast cancer cell line). As known in the field, antiproliferative or cytotoxic effect against this cell lines would be expected to be indicative of activity in treating lung, breast and brain cancers. See R. Marone R et al. Biochim. Biophys. Acta. 2008 January; 1784(1):159-85. S. Yaguchi et al., J. Natl. Cancer Inst. 2006 Apr. 19; 98(8):545-56.
(§2) Method Type: Antiproliferative/Cytotoxicity
(§3) alamarBlue® is designed to provide a rapid and sensitive measure of cell proliferation and cytotoxicity in various human and animal cell lines. The assay is based on the reduction of alamarBlue in the reducing environment of living (metabolically active) cells. In the presence of added cytotoxic or antiproliferative compounds, the innate metabolic activity ceases.
(§4) AlamarBlue is soluble and stable in culture medium. Measurements are made fluorometrically by exciting at 530-560 nm and measuring emission at 590 nm. In reporting percent alamarBlue reduction by monitoring fluorescence, data are expressed as fluorescence emission intensity units as a function of time of incubation.
(§5) 3. Equipment • 96-well plates, flat bottom (Falcon, Cat. No.: 353072) • 96-well plates, U-shaped (Costar, Cat. No.: 3799) • CO2-Incubator • Microplate Reader, Spectramax Plus, Molecular Devices 4. Typical Procedure • Day 0: Seed 3000 BT-474 cells (IMDM/5% FCS, 1% NEAA, 1% Sodiumpyruvat) in 150 μl medium into a 96-well plate, flat bottom (include mediumblank). Incubate plates at 37° C. in a CO2 incubator overnight. • Day 1: Dilute compounds to a concentration 40 μM->1:3 in medium, 10 dilution steps, in 96-well plates. • Add 50 μl per well of each dilution (total volume per well 200 μl; final conc. of cpds: 10 μM->1:3). If required, test further dilutions. • All concentrations are tested in duplicates. • Controls: Cells w/o cpd. (+50 μl medium/DMSO). • Cells are incubated with compounds for 5-6 days. • Day 6 or 7: Add 25 μl of alamarBlue solution to each well and incubate for 8 hours at 37° C. Measure fluorescence by exciting at 530-560 nm and measuring emission at 590 nm. 5. Evaluation • Subtract average value for medium blank from sample readings • Calculate EC50 using GraphPad Prism (Fifty)

MB453 cells = experiment: alamarBlue MB453 cell assay (antiproliferative/cytotoxicity); type: cell-based; details: Homo sapiens; MDA MB 453 breast cancer cell line
Text: as §1, §2, §3, §4, §5

U87 cells = experiment: U87 cell assay (antiproliferative/cytotoxicity); type: cell-based; details: U-87MG human glioblastoma cells
Text: as §1, §2, §3, §4, §5

MCF7 cells = experiment: alamarBlue MCF7 cell assay (antiproliferative/cytotoxicity); type: cell-based; details: MCF7 human breast cancer cell line
Text: as §1, §2, §3, §4, §5

BT474 cells = experiment: alamarBlue BT474 cell assay (antiproliferative/cytotoxicity); type: cell-based; details: BT-474 human breast cancer cell line
Text: as §1, §2, §3, §4, §5

Sequence of PI3Kalpha (P42336 whole entry): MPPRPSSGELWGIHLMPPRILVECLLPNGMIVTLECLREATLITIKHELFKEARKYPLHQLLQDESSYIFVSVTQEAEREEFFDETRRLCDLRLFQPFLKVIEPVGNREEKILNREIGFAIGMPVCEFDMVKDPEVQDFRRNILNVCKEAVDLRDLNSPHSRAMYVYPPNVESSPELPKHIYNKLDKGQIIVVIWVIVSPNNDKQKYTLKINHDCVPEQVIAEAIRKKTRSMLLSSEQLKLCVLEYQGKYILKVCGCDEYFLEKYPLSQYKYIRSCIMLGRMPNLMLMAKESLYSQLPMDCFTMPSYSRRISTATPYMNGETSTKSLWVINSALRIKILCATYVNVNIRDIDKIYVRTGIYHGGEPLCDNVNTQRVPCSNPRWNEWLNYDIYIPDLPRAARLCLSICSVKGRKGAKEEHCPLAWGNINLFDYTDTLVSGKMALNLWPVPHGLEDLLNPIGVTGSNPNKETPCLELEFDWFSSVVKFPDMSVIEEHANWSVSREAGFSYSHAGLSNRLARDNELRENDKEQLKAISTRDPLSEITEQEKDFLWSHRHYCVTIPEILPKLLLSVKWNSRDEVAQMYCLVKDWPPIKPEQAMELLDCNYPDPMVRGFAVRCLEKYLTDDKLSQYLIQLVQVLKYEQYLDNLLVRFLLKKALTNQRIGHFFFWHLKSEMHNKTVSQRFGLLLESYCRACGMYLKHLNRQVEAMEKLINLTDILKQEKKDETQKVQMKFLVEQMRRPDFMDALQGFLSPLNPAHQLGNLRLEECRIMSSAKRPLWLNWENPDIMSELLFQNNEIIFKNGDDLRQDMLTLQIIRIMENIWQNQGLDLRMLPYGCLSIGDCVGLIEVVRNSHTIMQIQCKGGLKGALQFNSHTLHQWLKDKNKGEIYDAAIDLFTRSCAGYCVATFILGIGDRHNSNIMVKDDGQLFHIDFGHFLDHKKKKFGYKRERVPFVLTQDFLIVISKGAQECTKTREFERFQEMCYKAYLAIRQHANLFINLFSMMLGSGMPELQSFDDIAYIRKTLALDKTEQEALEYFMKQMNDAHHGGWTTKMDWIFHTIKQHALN

SMILES | IC50 (PI3Kalpha) [nM] | EC50 (H460 cells) [nM] | EC50 (MB453 cells) [nM] | EC50 (U87 cells) [nM] | EC50 (MCF7 cells) [nM] | EC50 (BT474 cells) [nM]
Cc1ncc(C#Cc2c(C)ncnc2N2CCOCC2)cc1NS(=O)(=O)N1CCCC1 [Example I-64, Pyrrolidine-1-sulfonic acid [2-methyl-5-(4-methyl-6-morpholin-4-yl-pyrimidin-5-ylethynyl)-pyridin-3-yl]-amide] | 2 | 71 | 584 | 773 | 59 | 5950
Cc1ncnc(N2CCOCC2)c1C#Cc1cncc(NS(C)(=O)=O)c1 [Example I-24, N-[5-(4-Methyl-6-morpholin-4-yl-pyrimidin-5-ylethynyl)-pyridin-3-yl]-methanesulfonamide] | 4 | – | – | – | 1110 | 2360
COc1ncc(C#Cc2c(C)ncnc2N2CCOCC2)cc1NS(=O)(=O)c1cnn(C)c1 [Example I-88, N-[2-methoxy-5-[2-(4-methyl-6-morpholin-4-ylpyrimidin-5-yl)ethynyl]pyridin-3-yl]-1-methylpyrazole-4-sulfonamide] | 0.55 | 21 | 8 | 27 | – | 62
Cc1ncc(C#Cc2c(C)ncnc2N2CCOCC2)cc1NS(=O)(=O)c1cnn(C)c1 [Example I-51, 1-Methyl-1H-pyrazole-4-sulfonic acid [2-methyl-5-(4-methyl-6-morpholin-4-yl-pyrimidin-5-ylethynyl)-pyridin-3-yl]-amide] | – | 196 | 199 | 315 | 12 | 311
COCCN(C)c1ncnc(C)c1C#Cc1cnc(C)c(NS(=O)(=O)c2ccccc2)c1 [Example I-71, N-(5-{4-[(2-Methoxy-ethyl)-methyl-amino]-6-methyl-pyrimidin-5-ylethynyl}-2-methyl-pyridin-3-yl)-benzenesulfonamide] | 5 | 1620 | 2100 | 1190 | – | 1500
COc1ncc(C#Cc2c(C)ncnc2N2CCOCC2)cc1NS(=O)(=O)c1ccccc1C(F)(F)F [Example I-83, 2-Trifluoromethyl-N-[2-methoxy-5-(4-methyl-6-morpholin-4-yl-pyrimidin-5-ylethynyl)-pyridin-3-yl]-benzenesulfonamide] | 0.44 | 6 | 7 | 18 | – | 6
CCc1nc(N)nc(N2CCC(OC)CC2)c1C#Cc1cnc(C)c(NS(C)(=O)=O)c1 [Example I-34, N-{5-[2-Amino-4-ethyl-6-(4-methoxy-piperidin-1-yl)-pyrimidin-5-ylethynyl]-2-methyl-pyridin-3-yl}-methanesulfonamide] | 2 | – | – | – | 74 | 433
CCc1ncnc(N2CCC(OC)CC2)c1C#Cc1cnc(C)c(NS(C)(=O)=O)c1 [Example I-45, N-{5-[4-Ethyl-6-(4-methoxy-piperidin-1-yl)-pyrimidin-5-ylethynyl]-2-methyl-pyridin-3-yl}-methanesulfonamide] | 4 | 141 | – | – | 62 | 284
COC1CCN(c2ncnc(C)c2C#Cc2cnc(C)c(NS(=O)(=O)c3ccccc3)c2)CC1 [Example I-74, N-{5-[4-(4-Methoxy-piperidin-1-yl)-6-methyl-pyrimidin-5-ylethynyl]-2-methyl-pyridin-3-yl}-benzenesulfonamide] | 2 | 703 | 987 | 557 | – | 400
COc1ncc(C#Cc2c(C)ncnc2N2CCOCC2)cc1NS(=O)(=O)c1ccnn1C [Example I-87, N-[2-methoxy-5-[2-(4-methyl-6-morpholin-4-ylpyrimidin-5-yl)ethynyl]pyridin-3-yl]-2-methylpyrazole-3-sulfonamide] | 0.45 | 30 | 15 | 54 | – | 20
COc1ncc(C#Cc2c(C)ncnc2N2CCOCC2)cc1NS(=O)(=O)c1ccccc1OC(F)(F)F [Example I-82, 2-Trifluoromethoxy-N-[2-methoxy-5-(4-methyl-6-morpholin-4-yl-pyrimidin-5-ylethynyl)-pyridin-3-yl]-benzenesulfonamide] | 0.5 | 24 | 27 | 50 | – | 25
COc1ncc(C#Cc2c(C)ncnc2N2CCOCC2)cc1NS(C)(=O)=O [Example I-81, N-[2-methoxy-5-(4-methyl-6-morpholin-4-yl-pyrimidin-5-ylethynyl)-pyridin-3-yl]-methylsulfonamide] | 0.64 | 181 | 233 | 510 | – | 76
CCc1ncnc(N2CCC(O)CC2)c1C#Cc1cnc(C)c(NS(C)(=O)=O)c1 [Example I-46, N-{5-[4-Ethyl-6-(4-hydroxy-piperidin-1-yl)-pyrimidin-5-ylethynyl]-2-methyl-pyridin-3-yl}-methanesulfonamide] | – | 880 | – | – | 397 | 1270
COc1ncc(C#Cc2c(C)ncnc2N2CCOCC2)cc1NS(=O)(=O)c1cccs1 [Example I-86, N-[2-Methoxy-5-(4-methyl-6-morpholin-4-yl-pyrimidin-5-ylethynyl)-pyridin-3-yl]-thiophene-2-sulfonamide] | 0.39 | 10 | 14 | 42 | – | 12
COc1ncc(C#Cc2c(C)ncnc2N2CCOCC2)cc1NS(=O)(=O)c1ccc(C)o1 [Example I-89, N-[2-methoxy-5-[2-(4-methyl-6-morpholin-4-ylpyrimidin-5-yl)ethynyl]pyridin-3-yl]-5-methylfuran-2-sulfonamide] | 0.53 | 26 | 38 | 42 | – | 63
